Where two headings read alike, the source gives them in different places.
What was measured:
[1] = system: human embryonic kidney cells (HEK); experiment: Toxicity to HEK cells (CellTiter-Glo); assay type: cell-based; conditions: HEK293, 5 min, 405 nm light 146 mW cm^−2, 5 min, read-out: IC50 (HEK viability)
Description: Biocompatibility of MM with primary NHDF and HEK293T cells was assessed using the CellTiter-Glo® Luminescent Cell Viability Assay (Promega), per the manufacturer's instructions. The MM concentrations that reduced cell viability by 50% (IC50) were identified and the therapeutic index was calculated as the ratio between the IC50 and the MIC at a light intensity of 146 mW cm^−2.

S. epidermidis = experiment: MIC, S. epidermidis; assay type: cell-based; conditions: Staphylococcus epidermidis, read-out: MIC of MM
Description: (§1) The appropriate volume of an MM stock at 8 mM necessary to achieve a concentration ranging from 0.3125 to 40 μM was pipetted into a 2 mL microcentrifuge tube to which 1 mL of cell suspension prepared as previously described was added. Corresponding negative controls (DMSO only) were prepared in the same way. The mixture was gently mixed by pipetting and incubated in the dark at 30 or 37 ° C, depending on the strain, for 30 min with agitation (220 rpm). Afterward, MM- or DMSO-treated cells were dispensed in one well of a 24-well plate positioned in the center of the light beam (405 nm LED Light, Prizmatix, UHP—F-5-405) placed at the appropriate distance necessary to achieve the desired light intensity of 304 mW cm-2, 146 mW cm2 or 87 mW cm2, as measured with a handheld digital power meter console coupled to an S415C thermal power sensor head (Thorlabs, Newton, MA, USA). The temperature during irradiation was monitored using a thermocouple probe (Model SC-TT-K-30-36-PP; Omega Engineering, Inc., Stanford, CT, USA). Samples were agitated during irradiation. Dark controls were prepared as previously described except that no irradiation was provided. […]

E. coli [2] = experiment: MIC, E. coli; assay type: cell-based, Escherichia coli BW25113; conditions: Escherichia coli, read-out: MIC of MM
E. coli [3] = experiment: Electron microscopy (TEM, SEM) of E. coli; assay type: cell-based, Escherichia coli; conditions: 0.5×MIC, 43.8 J cm^−2
Description: E. coli was cultured to mid-log phase in MHB media. Cells were collected and resuspended in PBS (1×) to an OD600 of ≈0.05. […] Cells were then irradiated for 5 min at 146 mW cm-2 (43.8 J cm^−2) after which cells were fixed with Karnovsky's fixative (Carlson et al., 2003), and post-fixed with 1% osmium, and dehydrated with a series of ethanol washes. For TEM, samples were embedded in epoxy resin (PolyBed 812; Polyscienses, Inc., Warrington, PA, United States) after dehydration in a graduated 50-100% ethanol concentration series of washes. Ultrathin sections (65 nm) were cut using a Leica EM UC7 ultramicrotome (Leica Microsystems, Wetzlar, Germany) and post-stained with uranyl acetate and lead citrate. Specimens were observed using a JEOL JEM2100 TEM ([…], Japan) operating at an accelerating voltage of 80 kV. For SEM, following ethanol dehydration samples were critical point dried using a Leica EM CPD300 (Leica Microsystems, Wetzlar, Germany), sputter-coated with 10 nm of gold, and imaged with an FEI Apreo SEM (FEI Apreo, ThermoFisher Scientific, Waltham, MA) using a secondary electron detector.

[4] = Estimated rotation rate after light activation; conditions: based on known motors with similar core skeletons
B. cepacia = experiment: MIC, B. cepacia; assay type: cell-based; conditions: Burkholderia cepacia, read-out: MIC of MM
Description: as §1

S. aureus = experiment: MIC, S. aureus; assay type: cell-based, Staphylococcus aureus; conditions: for MIC of MM: S. aureus; for MIC: Staphylococcus aureus, read-out: MIC of MM
How it was run: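 Cell suspensions were exposed to compound at 0.3125-40 μM for 30 min in the dark, with agitation, at 30 or 37 °C depending on strain. Each sample was then irradiated with 405 nm light at 146 mW cm^−2 for 5 min (43.8 J cm^−2), inoculated into MHB and incubated overnight. MIC was read as the lowest concentration without visible growth, alongside non-irradiated controls.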

C. albicans = experiment: Development of resistance / cross-resistance in C. albicans (serial passage, single-step); assay type: cell-based; conditions: Candida albicans, read-out: MIC of MM in antifungal-resistant C. albicans
Description: FIG. 3: Evaluation of the development of resistance to MMs in C. albicans. For the stepwise resistance assessment by serial passage (left), C. albicans cell suspensions were treated with increasing concentrations (0.3125-160 μM) of different MMs (8 mM stock in DMSO) and then irradiated with […] light (87.6 J cm^−2). The irradiated cell suspensions were then inoculated in MOPS-buffered RPMI 1640 (pH 7.0, Sigma, MO, USA), and the tubes were incubated at 30 ° C for 48 h. […] Cells able to grow at 0.5×MIC of each MM were collected by centrifugation (5,000×g, 5 min), resuspended and re-challenged with a range of MM concentrations and irradiated with 405 nm light (87.6 J cm^−2). The procedure was repeated for a total of 20 consecutive cycles. […] Irradiated cells were then inoculated in YPD and incubated at 30 °C. However, MM-resistant colonies could not be recovered even after 14 days of incubation. Created with Biorender.com.
A modified version of the broth microdilution serial passage method was used to assess the development of resistance to visible-light-activated MMs in C. albicans (Kapoor et al., 2019). C. albicans cell suspensions were prepared and irradiated as previously described for the determination of MM MIC. Cells were then inoculated into buffered RPMI 1640 and incubated at 30 ° C for 48 h. Cells able to grow at 0.5×MIC of MM were centrifuged (5,000×g, 5 min), resuspended, rechallenged with different MM concentrations, and irradiated with 405-nm light (87.6 J cm^−2). The procedure was repeated for 20 consecutive cycles. The antifungals AMB, CAS, and FLC were processed similarly, except that light was omitted, and used as controls.

[5] = E. coli, Table 9, 405 nm light 43.8 J cm^−2

Structure (SMILES) | IC50 [1] [µM] | MIC (S. epidermidis) [µM] | MIC (E. coli [2]; [5]) [µM] | cell morphology (TEM) (E. coli [3]) | estimated rotation rate after light activation [4] [MHz] | MIC (B. cepacia) [µM] | MIC of MM (S. aureus; Table 9, 405 nm light 43.8 J cm^−2) | MIC (S. aureus) [µM] | MIC (C. albicans) [µM] | MIC (E. coli [2]; E. coli BW25113, 405 nm light 43.8 J cm^−2) [µM] | MIC of MM (S. aureus; 405 nm light) [µM]
C[C@@H]1Cc2ccc3ccccc3c2/C1=C1\c2ccccc2Sc2cc(NCCN)ccc21 (racemic) [MM 6, N^1-(9-(2-methyl-2,3-dihydro-1H-cyclopenta[a]naphthalen-1-ylidene)-9H-thioxanthen-3-yl)ethane-1,2-diamine] | 5 | 0.078 | 2.5 | substantial changes in cell morphology | 3 | 10 | 0.078 | 0.078 | 2.5 | – | –
C[C@@H]1Cc2ccc3ccccc3c2/C1=C1\c2ccccc2Sc2cc(NCCN(C)C)ccc21 [MM 1, N^1N^1-dimethyl-N^2-(9-(2-methyl-2,3-dihydro-1H-cyclopenta[a]naphthalen-1-ylidene)-9H-thioxanthen-3-yl) ethane-1,2-diamine] | 5 | 0.078 | 1.25 | substantial changes in cell morphology | 3 | 10 | – | 0.156 | 1.25 | 1.25 | 0.156

Reference: US20260355318A1, “MOLECULAR MACHINES FOR TREATMENT OF CANCER, FUNGAL INFECTIONS, OR BACTERIAL INFECTIONS” (priority 2022, published 2026)
